According to ChEMBL document CHEMBL2074427, “Identification of a mechanism by which the methylmercury antidotes N-acetylcysteine and dimercaptopropanesulfonate enhance urinary metal excretion: transport by the renal organic anion transporter-1” (Mol Pharmacol, 2002):
pKi: −log10 of the molar value.

Experiments:
[1] = target: T1, Solute carrier family 22 member 6 (Rattus norvegicus, UniProt O35956); experiment: TP_TRANSPORTER: inhibition of PAH uptake in Xenopus laevis oocytes; assay type: functional, cell-based, Oocyte
T1 sequence (O35956 whole entry): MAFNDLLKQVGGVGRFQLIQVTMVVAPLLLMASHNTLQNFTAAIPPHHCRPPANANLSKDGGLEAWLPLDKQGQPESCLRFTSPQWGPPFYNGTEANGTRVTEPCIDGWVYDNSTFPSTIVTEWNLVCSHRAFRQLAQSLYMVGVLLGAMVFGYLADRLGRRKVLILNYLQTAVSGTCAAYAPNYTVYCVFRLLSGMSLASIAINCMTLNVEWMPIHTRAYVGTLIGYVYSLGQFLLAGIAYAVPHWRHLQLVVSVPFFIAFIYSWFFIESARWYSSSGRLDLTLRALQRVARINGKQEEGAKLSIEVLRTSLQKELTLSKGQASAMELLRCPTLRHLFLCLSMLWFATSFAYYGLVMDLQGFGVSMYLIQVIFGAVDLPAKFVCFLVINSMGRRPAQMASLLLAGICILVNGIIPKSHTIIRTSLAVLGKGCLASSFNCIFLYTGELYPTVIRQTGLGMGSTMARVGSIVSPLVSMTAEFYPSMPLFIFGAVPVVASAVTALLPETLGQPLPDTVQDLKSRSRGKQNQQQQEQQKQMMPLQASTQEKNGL

[2] = target: T1, Solute carrier family 22 member 6; experiment: (§1) TP_TRANSPORTER: uptake in Xenopus laevis oocytes; assay type: functional, cell-based; settings: oocyte
[3] = target: T2, Organic anion transporter 3 (Rattus norvegicus, UniProt Q9R1U7); experiment: as §1; assay type: functional, cell-based; settings: oocyte
T2 sequence (Q9R1U7 whole entry): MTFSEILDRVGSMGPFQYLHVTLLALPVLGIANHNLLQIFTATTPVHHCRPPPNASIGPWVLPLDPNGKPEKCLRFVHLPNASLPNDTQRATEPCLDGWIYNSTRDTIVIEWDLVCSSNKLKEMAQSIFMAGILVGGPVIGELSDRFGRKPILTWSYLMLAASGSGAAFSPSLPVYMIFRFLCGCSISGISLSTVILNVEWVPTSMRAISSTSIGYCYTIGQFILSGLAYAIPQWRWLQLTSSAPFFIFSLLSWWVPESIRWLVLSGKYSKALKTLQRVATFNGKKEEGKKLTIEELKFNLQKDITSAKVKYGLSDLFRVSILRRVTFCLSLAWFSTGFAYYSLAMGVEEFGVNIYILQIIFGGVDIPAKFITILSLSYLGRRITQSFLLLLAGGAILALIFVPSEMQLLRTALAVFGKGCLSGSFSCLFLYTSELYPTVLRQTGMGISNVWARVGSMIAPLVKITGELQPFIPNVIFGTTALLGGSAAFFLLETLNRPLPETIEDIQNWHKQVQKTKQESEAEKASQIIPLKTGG

| Molecule | pKi [1] | Km [2] | Activity [3] | Activity [2] |
| --- | --- | --- | --- | --- |
| CC(=O)N[C@@H](CS)C(=O)O [ACETYLCYSTEINE] | 2.70 | – | – | – |
| MeHg-NAC | – | 31 µM | is not a substrate [-] | – |
| MeHg-glutathione | – | – | is not a substrate [-] | is not a substrate [-] |
| MeHg-penicillamine | – | – | is not a substrate [-] | is not a substrate [-] |
